Experimental data published in patent US9278958B2, “Anti-cancer compounds” (KATHOLIEKE UNIVERSITEIT LEUVEN, priority 2012, dated 2016).
Where two headings read alike, the source gives them in different places.

Experiments:
CEM cells = assay: Cytostatic assay, CEM; format: cell-based; settings: Homo sapiens, CCRF-CEM
In short: (§1)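 Each cell line grows in the presence of compound for 48 h to 96 h, the duration chosen per line, at 37° C in a humid CO2-regulated incubator. Seeding is 5-7.5×10^4 cells per well, and final counts come from a Coulter counter.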

Molt4/C8 cells = assay: Cytostatic assay, Molt4/C8; format: cell-based; settings: Table 2
In short: as §1

Sup T1 cells = assay: Cytostatic assay, Sup T1; format: cell-based; settings: Homo sapiens, Table 2, read-out: Cytostatic activity (μM) Sup T 1
In short: as §1

MT-2 cells = assay: Cytostatic assay, MT-2; format: cell-based; settings: Homo sapiens, MT2; Table 2
In short: as §1

C8166 cells = assay: Cytostatic assay, C8166; format: cell-based; settings: Homo sapiens, Table 2
In short: as §1

HUT-78 cells = assay: Cytostatic assay, HUT-78; format: cell-based; settings: Homo sapiens, HuT78; Table 2
In short: as §1

MT-4 cells = assay: Cytostatic assay, MT-4; format: cell-based; settings: Homo sapiens, MT4; Table 2
In short: as §1

[1] = test system: HL60, human leukemia cells; assay: Cytostatic assay, HL-60; format: cell-based; settings: Table 2
In short: as §1

[2] = test system: U937, human monocytic cells; assay: Cytostatic assay, U937; format: cell-based; settings: U-937, Table 2
In short: as §1

[3] = test system: THP-1, human monocytic cells; assay: Cytostatic assay, THP-1; format: cell-based; settings: Table 2
In short: as §1

[4] = test system: Raji, human B-lymphoma cells; assay: Cytostatic assay, Raji; format: cell-based; settings: Table 2
In short: as §1

[5] = test system: Daudi, human B-lymphoma cells; assay: Cytostatic assay, Daudi; format: cell-based; settings: Table 2
Experimental: (§2) To each well of a 96-well microtiter plate were added 5-7.5×10^4 cells and a given amount of the test compound. The cells were allowed to proliferate for 48 h to 96 h (depending on the nature of the cell line) at 37° C. in a humidified CO2-controlled atmosphere. At the end of the incubation period, the cells were counted in a Coulter Counter (Coulter Electronics Ltd, Harpenden Herts, United Kingdom).

L1210 cells = assay: Cytostatic assay, L1210; format: cell-based; settings: Mus musculus, Table 2
In short: as §1

[6] = test system: HOS CD4+ osteosarcoma cells; assay: Cytostatic assay, HOS CD4+; format: cell-based; settings: Homo sapiens; Table 3
Experimental: as §2

[7] = test system: OST TK- osteosarcoma cells; assay: Cytostatic assay, OST TK-; format: cell-based; settings: Homo sapiens; Table 3
In short: as §1

[8] = test system: MCF-7 mammary carcinoma cells; assay: Cytostatic assay, MCF-7; format: cell-based; settings: Homo sapiens, MCF7; Table 3
In short: as §1

[9] = test system: FM3A mammary carcinoma cells; assay: Cytostatic assay, FM3A; format: cell-based, murine; settings: Mus musculus, Table 3
In short: as §1

[10] = test system: HeLa cervix carcinoma cells; assay: Cytostatic assay, HeLa; format: cell-based, human; settings: Homo sapiens; Table 3; read-out: Cytostatic activity (μM) Hela
In short: as §1

[11] = test system: Caki-1 kidney carcinoma cells; assay: Cytostatic assay, Caki-1; format: cell-based; settings: Homo sapiens, Table 3
In short: as §1

[12] = test system: Caki-2 kidney carcinoma cells; assay: Cytostatic assay, Caki-2; format: cell-based; settings: Homo sapiens, Table 3
In short: as §1

[13] = test system: 293T embryonic kidney cells; assay: Cytostatic assay, 293T; format: cell-based; settings: Homo sapiens, HEK-293T; Table 3
In short: as §1

[14] = test system: HT29 colorectal carcinoma cells; assay: Cytostatic assay, HT29; format: cell-based; settings: Homo sapiens, HT-29; Table 3
In short: as §1

U87 glioma cells = assay: Cytostatic assay, U87; format: cell-based; settings: Homo sapiens, U-87 MG; Table 3
In short: as §1

[15] = test system: U87 CD4+/CXCR4+/CCR5+ glioma cells; assay: Cytostatic assay, U87 CD4+/CXCR4+/CCR5+; format: cell-based; settings: Homo sapiens, Glioma cell; Table 3
Experimental: as §2

[16] = test system: HEL embryonic lung fibroblast cells; assay: Cytostatic assay, HEL; format: cell-based; settings: Homo sapiens, Table 3
In short: as §1

[17] = test system: BAEC aortic endothelial cells; assay: Cytostatic assay, BAEC; format: cell-based, bovine; settings: Bos taurus, Table 3
In short: as §1

[18] = test system: PC3 (rega) prostate cancer cells; assay: Cytostatic assay, PC3 (rega); format: cell-based; settings: Table 4
In short: as §1

BPH-1 (UZ) = assay: Cytostatic assay, BPH-1 (UZ); format: cell-based; settings: Homo sapiens, Table 4
In short: as §1

[19] = test system: DU145 (UZ) prostate cancer cells; assay: Cytostatic assay, DU145 (UZ); format: cell-based; settings: Homo sapiens, DU-145; Table 4
In short: as §1

[20] = test system: PC-3 (UZ) prostate cancer cells; assay: Cytostatic assay, PC-3 (UZ); format: cell-based; settings: Table 4
In short: as §1

[21] = test system: LNCaP (UZ) prostate cancer cells; assay: Cytostatic assay, LNCaP (UZ); format: cell-based; settings: Homo sapiens, Table 4
In short: as §1

[22] = test system: PNT1A (UZ) prostate cells; assay: Cytostatic assay, PNT1A (UZ); format: cell-based; settings: Homo sapiens, Table 4
In short: as §1

[23] = test system: 22Rv1 (UZ) prostate cancer cells; assay: Cytostatic assay, 22Rv1 (UZ); format: cell-based; settings: Homo sapiens, Table 4
In short: as §1

PLC/PRF/5 hepatoma cells = assay: Cytostatic assay, PLC/PRF/5; format: cell-based; settings: Homo sapiens, Table 4
In short: as §1

HepG2C3A hepatoma cells = assay: Cytostatic assay, HepG2C3A; format: cell-based; settings: Homo sapiens, HepG2/C3A; Table 4
In short: as §1

Huh-7 hepatoma cells = assay: Cytostatic assay, Huh-7; format: cell-based; settings: Homo sapiens, Table 4
In short: as §1

[24] = test system: DNA synthesis in CEM cells; assay: Antimetabolic activity assay, [CH3-3H]dThd incorporation (DNA synthesis), CEM; format: cell-based; settings: Homo sapiens, CCRF-CEM, incorporation into TCA-insoluble material
Experimental: (§3) Radiolabeled precursors of DNA synthesis ([^3H-methyl]dThd), RNA synthesis ([5-^3H]Urd), and protein synthesis ([4,5-^3H]leu) were added to 10^5 CEM cell cultures in the 200 μl-wells of a microtiter plate at 1 μCi for each precursor in the presence of varying concentrations of the test compounds (5-fold dilution series). The cells were allowed to proliferate for 20 hrs at 37° C. in a humidified, CO2-controlled atmosphere. At the end of the incubation period, the contents of the wells were brought onto 25-mm glass fiber filters and further processed for measurement of acid-insoluble radioactivity.

[25] = test system: DNA synthesis in Raji cells; assay: Antimetabolic activity assay, [CH3-3H]dThd incorporation (DNA synthesis), Raji; format: cell-based; settings: Homo sapiens, incorporation into TCA-insoluble material
Experimental: [The procedure below names another cell line; the source lists this cell line under the same test.] as §3

[26] = test system: RNA synthesis in CEM cells; assay: Antimetabolic activity assay, [5-3H]uridine incorporation (RNA synthesis), CEM; format: cell-based; settings: Homo sapiens, CCRF-CEM, incorporation into TCA-insoluble material
Experimental: as §3

[27] = test system: RNA synthesis in Raji cells; assay: Antimetabolic activity assay, [5-3H]uridine incorporation (RNA synthesis), Raji; format: cell-based; settings: Homo sapiens, incorporation into TCA-insoluble material
Experimental: [The procedure below names another cell line; the source lists this cell line under the same test.] as §3

[28] = test system: protein synthesis in CEM cells; assay: Antimetabolic activity assay, [4,5-3H]leucine incorporation (protein synthesis), CEM; format: cell-based; settings: Homo sapiens, CCRF-CEM, incorporation into TCA-insoluble material
Experimental: as §3

[29] = test system: protein synthesis in Raji cells; assay: Antimetabolic activity assay, [4,5-3H]leucine incorporation (protein synthesis), Raji; format: cell-based; settings: Homo sapiens, incorporation into TCA-insoluble material
Experimental: [The procedure below names another cell line; the source lists this cell line under the same test.] as §3

[30] = test system: broad variety of tumor cell lines; assay: Cytostatic assays, summary over the panel of cell lines (Tables 2-4); format: cell-based
Experimental: as §2

- IC50 (CEM cells; Table 1a, read-out: IC50 μM (CEM)): 0.7 µM
- IC50 (CEM cells; Table 2, read-out: Cytostatic activity (μM) CEM): 0.73 ± 0.62 µM
- IC50 (Molt4/C8 cells): 0.22 µM
- IC50 (Sup T1 cells): 1.5 ± 0.14 µM
- IC50 (MT-2 cells): 1.5 ± 0.21 µM
- IC50 (C8166 cells): 2.8 ± 0.14 µM
- IC50 (HUT-78 cells): 44 ± 6.4 µM
- IC50 [1]: 6.2 ± 8.5 µM
- IC50 [2]: 41 ± 1.4 µM
- IC50 [3]: 44 ± 1.4 µM
- IC50 [4]: 48 ± 1.4 µM
- IC50 [5]: 43 ± 2.8 µM
- IC50 (L1210 cells): 40 ± 2 µM
- IC50 [6]: 35 ± 7.1 µM
- IC50 [7]: 3.8 ± 1.7 µM
- IC50 [8]: 42 ± 0.71 µM
- IC50 [9]: 40 ± 3.5 µM
- IC50 [10]: 42 ± 5.5 µM
- IC50 [11]: 5.3 ± 2.2 µM
- IC50 [12]: 88 ± 17 µM
- IC50 [14]: 48 ± 23 µM
- IC50 (U87 glioma cells): 37 ± 2.8 µM
- IC50 [15]: 28 ± 3.5 µM
- IC50 [17]: 16 ± 16 µM
- IC50 [18]: 0.29 ± 0.14 µM
- IC50 (BPH-1 (UZ)): 41 ± 1.4 µM
- IC50 [19]: 9.3 ± 8.4 µM
- IC50 [20]: 0.96 ± 0.2 µM
- IC50 [21]: 0.26 ± 0.081 µM
- IC50 [22]: 38 ± 7.8 µM
- IC50 [23]: 6.3 ± 2.5 µM
- IC50 (PLC/PRF/5 hepatoma cells): 41 ± 6.4 µM
- IC50 (HepG2C3A hepatoma cells): 12 ± 2.1 µM
- IC50 (Huh-7 hepatoma cells): 1.5 ± 0.28 µM
- IC50 [24]: 2.3 ± 1 µM
- IC50 [25]: ≥ 100 µM
- IC50 [26]: 0.66 ± 0.01 µM
- IC50 [27]: 60 ± 57 µM
- IC50 [28]: 0.2 ± 0.07 µM
- IC50 [29]: ≥ 100 µM
- IC50 ([30]; Homo sapiens, HuT78, range for the seven compounds, MT-4 and HUT-78 cells, read-out: IC50 range, cytostatic activity against MT-4 and HUT-78 cells): 8.5 to 60 µM
- IC50 ([30]; range for the seven compounds against the 5 tumor cell lines, read-out: IC50 range, cytostatic activity against CEM, Molt4/C8, Sup T1, MT-2 and C8166 cells): 0.22 to 3.4 µM
Structure (SMILES): CCOC(=O)c1cc(C#Cc2ccc(OC)cc2)sc1N [TR530, 2-Amino-5-(4-methoxy-phenylethynyl)-thiophene-3-carboxylic acid ethyl ester]
- IC50 (MT-4 cells): 22 ± 15 µM
- IC50 [13]: 37 ± 0.71 µM
- IC50 [16]: 35 ± 13 µM
